How the values were obtained:
[1] = system: ovalbumin-induced systemic edema; test: Anti-inflammatory action: ovalbumin-induced systemic edema method; type: in vivo; conditions: rats, 100 mg orally 1 hr prior to and with ovalbumin, vs control group
Procedure: (b) Ovalbumin-induced systemic edema method Rats are administered a simultaneous intraperitoneal injection of 1 ml ovalbumin and 0.5 ml of a 1°/.Salinity. aqueous Evans Blue solution. The animals of the treated group are additionally administered orally 100 mg of the test derivative, 1 hr prior to and simultaneously with ovalbumin administration. The intensity of the phenomenon thus induced is scored according to a scale from 1 to 5, according to the progress of the inflammatory syndrome. Thus are determined the mean intensity of the edema and the percent decrease of the edema reaction with respect to the control group.

[2] = system: carrageenin-induced edema; test: Anti-inflammatory action: localised carrageenin-induced edema method; type: in vivo; conditions: rats, 100 mg/kg orally 1 h before, with, 1 h and 2.5 hrs after carrageenin
Procedure: (a) Localised carrageenin-induced edema method: A 1% carrageenin solution (0.1 ml) is injected in the metatarsal flexor muscles of the right hind limb of rats at time 0. The animals of the treated group are additionally administered orally 100 mg/kg of the test derivative, respectively one hour prior to and then simultaneously with the injection of the phlogogenic agent, and then 1 hour and 2.5 hrs thereafter. The percent anti-inflammatory activity with reference to the reference group, as a function of time, is determined by measurements effected with a Roch micrometer at times 0, 1 hour, 2 hours, 3 hours and 5 hours after carrageenin administration. The results obtained with derivatives nos.

[3] = Toxicological investigation: acute toxicity LD50 in mice, intravenous route; conditions: mouse, in vivo, per kg body weight

SMILES | Percent decrease (of the edema reaction) after 2 hours [1] | Percent decrease (of the edema reaction) after 3 hours [1] | Percent anti-inflammatory activity after 1 hour [2] | Percent anti-inflammatory activity after 2 hours [2] | Percent anti-inflammatory activity after 5 hours [2] | LD50 at 24 h [3]
COC(=O)c1ccccc1CN1CCc2sccc2C1 [Derivative no. 1, 5-o-Methoxycarbonylbenzyl-4,5,6,7-tetrahydro-thieno[3,2-c]pyridine] | 51% | 58% | 43% | 50% | 55% | 92 mg/kg
O=C(O)c1ccccc1CN1CCc2sccc2C1 [Derivative no. 2, 5-o-Carboxybenzyl-4,5,6,7-tetrahydro-thieno[3,2-c]pyridine] | – | – | – | – | – | 300 mg/kg
COC(=O)c1ccccc1CN1Cc2ccsc2CC1C (stereo not drawn) [Derivative no. 3, 5-o-Methoxycarbonylbenzyl-6-methyl-4,5,6,7-tetrahydrothieno[3,2-c]pyridine] | – | – | – | – | – | 65 mg/kg
Cl.Clc1ccc(CN2CCc3sccc3C2)s1 [Derivative no. 4, 5-[(5-Chloro-2-thienyl)-methyl]-4,5,6,7-tetrahydro-thieno[3,2-c]pyridine hydrochloride] | 48% | 53% | 39% | 47% | 54% | 165 mg/kg
OC(CN1CCc2sccc2C1)c1cccs1 (stereo not drawn) [Derivative no. 5, 5-[2-hydroxy-2-(2-thienyl)-ethyl]-4,5,6,7-tetrahydro-thieno[3,2-c]pyridinefumarate] | 50% | 61% | 45% | 53% | 59% | 75 mg/kg
Cl.Clc1ccccc1C=CCN1CCc2sccc2C1 [Derivative no. 6, 5-(3-o-chlorophenyl-2-propenyl)-4,5,6,7-tetrahydro-thieno[3,2-c]pyridine hydrochloride] | – | – | – | – | – | 60 mg/kg
N#Cc1ccccc1CN1CCc2sccc2C1.O=C(O)/C=C\C(=O)O [Derivative no. 7, 5-o-cyanobenzyl-4,5,6,7-tetrahydrothieno[3,2-c]pyridine maleate] | – | – | – | – | – | 45 mg/kg
Cl.c1cc2c(s1)CCN(Cc1ccc3c(c1)OCO3)C2 [Derivative no. 8, 5-(3,4-methylenedioxy-benzyl)-4,5,6,7-tetrahydro-thieno[3,2-c]pyridine hydrochloride] | 54% | 64% | 41% | 51% | 59% | 65 mg/kg
OCc1ccccc1CN1CCc2sccc2C1 [Derivative no. 10, 5-o-hydroxy-methylbenzyl-4,5,6,7-tetrahydrothieno[3,2-c]pyridine] | 51% | 62% | 36% | 48% | 56% | –

Source: US4097482A, “5-O-Cyanobenzyl-4,5,6,7-tetrahydro-thieno[3,2-c]pyridine maleate” (Centre d'Etudes Pour L'Industrie Pharmaceutique, priority 1975, dated 1978)
